Literature values in US20050227949A1, “Compositions and methods for treatment of viral and bacterial infections” (priority 2004, published 2005).

Assays:
HIV = conditions: previously reported
herpes simplex = conditions: previously reported treatment of herpes simplex infections
suppressor T-cells = conditions: further reported uses; probably due to blockade of selected suppressor T-cells

Structure (SMILES): CN/C(=N/CCSCc1nc[nH]c1C)NC#N [cimetidine]
- treatment result in HIV patients (HIV): less encouraging results
- outbreak and duration of herpes zoster (herpes simplex): effectively reduced outbreak and duration of herpes zoster
- immune functions (suppressor T-cells): improvements of various immune functions
